Consider two compounds from patent US6455526B1, “Biodegradable polymer encapsulated pharmaceutical compositions and method for preparing the same” (Aventis Pharmaceuticals, Inc., priority 1998, dated 2002).

For one assay, the system named is Male Wistar rats. Briefly: Chronic Mild Stress Model of Depression (CMS), sucrose intake. Format: in vivo, rat. To be noted: for Sucrose intake in control animals / Sucrose intake in stressed animals: five weeks; for Sucrose intake in stressed animals: treatment effect. From the text: CMS uses mild stressors, such as food and water deprivation, cage tilts, changes of cage mates, etc. Over a period of weeks of exposure to the mild stressors, the animals gradually reduce their consumption of a highly preferred sucrose solution which persists (in untreated animals) for several weeks following the cessation of stress. This decreased sensitivity to reward (the sucrose solution) reflects anhedonia, a symptom of a Major Depressive Episode (see for example, Behavioral Pharmacol. 5: Suppl.1, p. 86 (1994) where lithium, carbamazepine and ketoconazole were evaluated in CMS; Psychopharmacology 93:358-364 (1987) where a tricyclic antidepressant was evaluated in CMS; Behavioral Pharmacology: 5:344-350 (1994) where a catechol-O-methyl transferase inhibitor was evaluated in CMS).
Male Wistar rats were brought into the laboratory two months before the start of the experiment at which time they weighed approximately 300 grams. Except as described below, the animals were singly housed, with food and water freely available, and maintained on a 12 hour light/dark cycle (lights on at 8AM) at a temperature of about 22° C.
The animals were first trained to consume a 1% sucrose solution; training consisted of eight 1 hour baseline tests in which sucrose was presented, in the home cage, following 14 hours food and water deprivation; intake was measured by weighing pre-weighed bottles containing the sucrose solution at the end of the test. Subsequently, sucrose consumption was monitored, under similar conditions, at weekly intervals throughout the whole experiment.
On the basis of their sucrose intakes in the final baseline test, the animals were divided into two matched groups. One group of animals was subjected to a chronic mild stress procedure for a period of 9 consecutive weeks. Each week of stress regime consisted of: two periods of food or water deprivation (12 and 14 hour), two periods of 45 degree cage tilt (12 and 14 hour+), two periods of intermittent overnight illumination (lights on and off every 2 hours), two 14 hour periods of soiled cage (200 ml water in sawdust bedding), two 14 hour periods of paired housing, two 14 hour periods of low intensity stroboscopic illumination (150 flashes/min). Stressors were applied continuously throughout the day and night, and scheduled randomly. Control animals were housed in a separate room and had no contract with the stressed animals. They were deprived of food and water for the 14 hours preceding each sucrose test, but otherwise food and water were freely available in the home cage. On the basis of their sucrose intake scores following 3 weeks of stress, both stressed and control animals were each divided further into matched subgroups (n=8), and for subsequent five weeks they received daily administrations of vehicle (1 ml/kg, intraperitoneally (ip)) imipramine (10 mg/kg, ip) or MDL 100,907 (0.002, 0.02 and 0.2 mg/kg orally). All drug injections were in a volume of 1 ml/kg body weight. Drugs were administered at 10AM and sucrose tests were carried out 24 hours following the last drug treatment. After five weeks, the treatments were terminated and after one week of withdrawal a final sucrose test was carried out. Stress was continued throughout the period of treatment and withdrawal.
Results were analyzed by multiple analysis of variance, followed by Fisher's LSD test for post hoc comparisons of means.

Assay [1] relates to A10 vs. A9 neuronal activity. To be noted: after chronic administration; cited from earlier work.
Assay [2] has as its system amphetamine-stimulated locomotion. To be noted: in vivo; cited from earlier work.
The next assay concerns prepulse inhibition. To be noted: cited from earlier work.
The next assay has as its system myocardial tissue. To be noted: cited from earlier work.
Where [3] appears, read: 0.002, 0.02 and 0.2 mg/kg orally daily.

As to `CN(C)CCCN1c2ccccc2CCc2ccccc21` [Imipramine, reference compound], in the assay with Male Wistar rats (10 mg/kg, ip daily), the “Sucrose intake in control animals” value was “no significant effect” and the “Sucrose intake in stressed animals” value is listed as “gradual increase of sucrose intake”. Moreover, the “Sucrose intake of drug-treated stressed animals vs drug- and saline-treated controls” value in the assay on Male Wistar rats (10 mg/kg, ip, after five weeks of treatment) is recorded as “no significant differences”. The “Sucrose intake in stressed animals vs Week 0 scores” value in the assay with Male Wistar rats (10 mg/kg, ip, after four weeks of treatment) is “significantly increased”. The “Increase of sucrose intake in stressed animals after withdrawal” value with Male Wistar rats (10 mg/kg, ip, one week after withdrawal) is “maintained at similar level”.
Regarding `COc1cccc(C(O)C2CCN(CCc3ccc(F)cc3)CC2)c1OC` (stereo not drawn) [MDL 100,907, (+)-α-(2,3-dimethoxyphenyl)-1-[2-(4-fluorophenyl)ethyl]-4-piperidinemethanol], the “Sucrose intake in stressed animals throughout the whole treatment period” value in the assay with Male Wistar rats (0.002 mg/kg orally) was “no significant effect”. The “Sucrose solution drunk by stressed animals at end of treatment (Week 5)” value with Male Wistar rats (0.02 mg/kg orally) was “comparable to that of vehicle-treated controls”. Also, the “Sucrose intake in stressed animals vs initial scores (Week 0)” value in the assay on Male Wistar rats (0.02 mg/kg orally, after two weeks of treatment) was “significantly increased”. Moreover, the “Sucrose solution drunk by stressed animals at end of treatment (Week 5)” value in the assay on Male Wistar rats (0.2 mg/kg orally) is given as “comparable to that of vehicle-treated controls”. In addition, the “Sucrose intake in stressed animals vs initial scores (Week 0)” value in the assay on Male Wistar rats (0.2 mg/kg orally, after three weeks of treatment) is recorded as “significantly increased”. For the same compound, in the assay on Male Wistar rats (0.002, 0.02, 0.2 mg/kg orally), the “Sucrose intake in control animals one week after withdrawal” value is reported as “not significantly changed” and the “Sucrose intake in stressed animals one week after withdrawal” value was “not significantly changed”. Besides, in the assay on Male Wistar rats (setting [3]), the “Sucrose intake in control animals” value is “no significant effect” and the “Sucrose intake in stressed animals” value is on record as “gradually reversed the CMS-induced deficit in sucrose intake”. Besides, the “Effects on A10 vs. A9 neuronal activity” value in assay [1] was “selective effects”. In assay [2], the Amphetamine-stimulated locomotion result was “blockade”. Further, the “Disrupted PPI (prepulse inhibition)” value in the assay on prepulse inhibition (disruption produced by 5HT agonists in Wistar rats) is reported as “restore disrupted PPI”. Moreover, the “5-HT2 agonist-induced deficits in prepulse inhibition and latent inhibition” value in the assay with prepulse inhibition (rat, in vivo) is on record as “reversal”. Also, in the assay with myocardial tissue, the “Duration of the action potential of myocardial tissue” value is given as “increases”.
